Test results as given in patent US12485117B2, “Compositions and methods for activating signaling through the CB1 cannabinoid receptor for treating and preventing diseases and disorders characterized by abnormal cellular accumulation of sphingolipids such as sphingomyelin” (Wylder Nation Foundation, priority 2018, dated 2025).

Legend:
Format in all cases: cell-based, mouse
[1] = test system: cultured primary hippocampal neurons from ASMko mice; experiment: Sphingomyelin levels by enzymatic assay in cultured primary hippocampal neurons from ASMko mice
Excerpt: (§1) FIGS. 5A-5D show sphingomyelin and endocannabinoid levels in cultured primary hippocampal neurons and hippocampal tissue, respectively, from ASMko and wildtype mice.
Statistical significance Student's t-test, *P<0.05, **P<0.005, n=3 independent cultures.
Statistical significance Student's t-test, **P<0.005, n=3 independent cultures.
Anandamide (AEA) is the major endogenous CB1 ligand. We therefore tested whether increased levels of anandamide affected sphingomyelin levels in cultured primary hippocampal neurons from ASMko mice. Anandamide was increased in two ways: • 1. By incubating the neuronal cultures with exogenous anandamide; and • 2. By incubating the neuronal cultures with PF-04457845, which is an inhibitor of the anandamide hydrolytic enzyme FAAH. Inhibition of FAAH causes accumulation of anandamide by inhibiting FAAH-mediated hydrolyzation of anandamide.
The following experiments were performed in three independent cultures of hippocampal neurons derived from ASMko mice. Treatments were done at 11-13 days in vitro when these cells are considered mature and functional.
To set the optimal conditions for such hydrolysis in terms of concentration and time of incubation, anandamide was added to the culture medium of mature ASMko hippocampal neurons at 0, 5, 25, 50 and 100 μM for 30 minutes or 1 hour. […] The optimal conditions for SM degradation were in a range of concentration of 25-50 μM for 1 hour. […] We therefore decided to use 25 μM anandamide for 1-hour incubation time in our next experiments.
Similar to the anandamide dose/time response experiment above, we performed another dose response experiment using URB597 (URB), an inhibitor of the anandamide-hydrolyzing enzyme FAAH, to be used as reference for the other FAAH inhibitors. The experiments were done in the presence or absence of exogenous anandamide. URB was added to the culture medium of ASMko mature neurons at 0, 5, 25 and 50 μM for 1 hour with or without □□ μM anandamide.
We next compared URB efficacy to reduce SM levels with that of other FAAH inhibitors PF-04457845 (PF) and JNJ-1661010 (JNJ).

[2] = test system: wildtype cultured neurons; experiment: Sphingomyelin levels in wildtype cultured neurons; settings: wildtype (FIG. 5D)
Excerpt: as §1
It has been shown that mGluR activation promotes 2-AG synthesis and CB1 stimulation (Maccarrone et al., Nat Neurosci 2008). We therefore sought to determine whether activation of mGluR5 with the allosteric activator CDPPB might induce sphingomyelin breakdown in ASMko neurons. […] Thus, the effect of decreased CB1 expression might be further exacerbated by decrease in endogenous endocannabinoid signaling, at least via 2-AG.

[3] = test system: permeabilized ASMko neurons; experiment: Lysenin staining of SM in intracellular compartments of permeabilized ASMko neurons; settings: 1 hour at 50 μM (FIG. 9)
Procedure: Statistical significance Student's t-test, *P<0.05, n=3 independent cultures.
To determine whether SM hydrolysis induced by FAAH inhibitors was taking place not only at the cell surface, but also in intracellular compartments, we performed staining with lysenin, a worm toxin that specifically binds to SM, in permeabilized ASMko neurons non-treated or treated with anandamide, URB, PF-04457845 or JNJ for 1 hour at 50 μM.

ASMko cultured neurons [4] = experiment: MAP2 immunofluorescence of dendrites in ASMko cultured neurons; settings: 50 μM for 1 hour
ASMko cultured neurons [5] = experiment: TUNEL assay of neuronal death in ASMko cultured neurons; settings: 50 μM for 1 hour
Procedure: FIG. 10B is a graph showing mean±SEM percentage of apoptotic cells, measured by TUNEL assay, with respect to the positive control in which the cells were treated with H202.
The percentage of dying neurons showing DNA fragmentation was 5-8% in the treated ASMko cultures similar to the non-treated ones.

Structure (SMILES): N#Cc1cccc(C(=O)Nc2cc(-c3ccccc3)nn2-c2ccccc2)c1 [CDPPB, 3-Cyano-N-(1,3-diphenyl-1H-pyrazol-5-yl)benzamide]
- sphingomyelin levels ([1]; 15 μM, ASMko cultured neurons (FIG. 5D)): significant decreases in sphingomyelin levels
- sphingomyelin levels [2]: did not affect sphingomyelin levels

Structure (SMILES): Cl.Cl.O=C(/C=C/c1ccc(/C=C/C(=O)Nc2ccc(C3=NCCN3)cc2)cc1)Nc1ccc(C2=NCCN2)cc1 [GW4869]
- effect of co-incubation with the neutral sphingomyelinase inhibitor on the sphingomyelin reduction by anandamide or PF-04457845 ([1]; ASMko neurons, 1 hour (FIG. 5A)): prevented

Structure (SMILES): O=C(Nc1ccccc1)N1CCN(c2nc(-c3ccccc3)ns2)CC1 [JNJ-1661010]
- SM hydrolysis ([1]; 50 μM and 1 hour (FIG. 8)): promoted SM hydrolysis
- SM levels in intracellular compartments (lysenin staining) [3]: variable tendency to SM reduction that was not statistically significant
- morphology, length, appearance of dendrites (MAP2) (ASMko cultured neurons [4]): did not alter the morphology, length or homogeneous appearance of dendrites
- neuronal death as assessed by TUNEL (ASMko cultured neurons [5]): did not induce neuronal death

Structure (SMILES): NC(=O)c1cccc(-c2cccc(OC(=O)NC3CCCCC3)c2)c1 [URB597]
- SM levels, dose response ([1]; 0, 5, 25 and 50 μM for 1 hour, without exogenous anandamide (FIG. 7)): dose dependent reduction of SM levels
- SM hydrolysis ([1]; 50 μM and 1 hour (FIG. 8)): promoted SM hydrolysis
- efficacy to reduce SM levels compared among FAAH inhibitors ([1]; 50 μM and 1 hour (FIG. 8)): most reliable and efficient
- SM levels in intracellular compartments (lysenin staining) [3]: significantly reduced SM levels
- morphology, length, appearance of dendrites (MAP2) (ASMko cultured neurons [4]): did not alter the morphology, length or homogeneous appearance of dendrites
- neuronal death as assessed by TUNEL (ASMko cultured neurons [5]): did not induce neuronal death

Structure (SMILES): CCCCC/C=C\C/C=C\C/C=C\C/C=C\CCCC(=O)NCCO [anandamide]
- SM hydrolysis, dose and time response ([1]; 0, 5, 25, 50 and 100 μM for 30 minutes or 1 hour (FIG. 6)): induced SM hydrolysis in a dose and time dependent manner
- SM reduction at very high concentration ([1]; 100 μM): SM reduction was prevented
- optimal concentration for SM degradation ([1]; 1 hour): 25 to 50 µM
- sphingomyelin levels ([1]; ASMko neurons, 1 hour incubation (FIG. 5A)): reduced sphingomyelin levels
- effect of addition of exogenous anandamide on SM hydrolysis by FAAH inhibitors ([1]; FAAH inhibitors at 50 μM, 1 hour): did not further enhance SM hydrolysis
- SM reduction with URB and anandamide versus URB alone ([1]; URB concentrations other than the lowest, 1 hour): SM reduction was similar
- effect of anandamide addition on SM reduction by URB ([1]; lowest URB concentration, 1 hour): synergized the action of URB
- SM levels in intracellular compartments (lysenin staining) [3]: variable tendency to SM reduction that was not statistically significant
- morphology, length, appearance of dendrites (MAP2) (ASMko cultured neurons [4]): did not alter the morphology, length or homogeneous appearance of dendrites
- neuronal death as assessed by TUNEL (ASMko cultured neurons [5]): did not induce neuronal death
